Results taken from PubChem BioAssay (NCI).
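Growth conditions: 96-well plates. Treatment: test compound, 48 hours, 5 concentrations. Analysis: linear interpolation between bracketing concentrations; unreached endpoints set to highest concentration. Abbreviation: GI50, concentration required for 50% inhibition of growth. TGI: total growth inhibition.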

How the values were obtained:
Assay in all cases: DTP human tumour cell line panel, 48 h
[1] = system: 786-0 renal
[2] = system: A498 renal
[3] = system: A549 NSCLC
[4] = system: ACHN renal
[5] = system: BT-549 breast
[6] = system: CAKI-1 renal
[7] = system: CCRF-CEM leukemia
[8] = system: COLO 205 colon
[9] = system: DU-145 prostate
[10] = system: EKVX NSCLC
[11] = system: HCC-2998 colon
[12] = system: HCT-116 colon
[13] = system: HCT-15 colon
[14] = system: HL-60(TB) leukemia
[15] = system: HOP-62 NSCLC
[16] = system: HOP-92 NSCLC
[17] = system: HT29 colon
[18] = system: IGROV1 ovarian
[19] = system: K-562 leukemia
[20] = system: KM12 colon
[21] = system: LOX IMVI melanoma
[22] = system: M14 melanoma
[23] = system: MALME-3M melanoma
[24] = system: MCF7 breast
[25] = system: MDA-MB-231 breast
[26] = system: MDA-MB-435
[27] = system: MDA-MB-468 breast
[28] = system: MOLT-4 leukemia
[29] = system: NCI-H23 lung
[30] = system: NCI-H522 lung
[31] = system: NCI/ADR-RES ovarian
[32] = system: OVCAR-3 ovarian
[33] = system: OVCAR-4 ovarian
[34] = system: OVCAR-5 ovarian
[35] = system: PC-3 prostate
[36] = system: RPMI-8226 leukemia
[37] = system: RXF 393 renal
[38] = system: SF-268 CNS
[39] = system: SF-295 CNS
[40] = system: SF-539 CNS
[41] = system: SK-MEL-28 melanoma
[42] = system: SK-MEL-5 melanoma
[43] = system: SK-OV-3 ovarian
[44] = system: SN12C renal
[45] = system: SNB-19 CNS
[46] = system: SNB-75 CNS
[47] = system: SR leukemia
[48] = system: SW-620 colon
[49] = system: T-47D breast
[50] = system: TK-10 renal
[51] = system: U251 CNS
[52] = system: UACC-257 melanoma
[53] = system: UACC-62 melanoma
[54] = system: UO-31 renal
[55] = system: HS 578T breast
[56] = system: NCI-H226 lung
[57] = system: NCI-H460 lung
[58] = system: OVCAR-8 ovarian
[59] = system: SK-MEL-2 melanoma

CC[C@]12C=CCN3CC[C@@]4(c5ccc(OC)cc5N(C)[C@H]4[C@@](O)(C(=O)OC)[C@@H]1OC(=O)CCC[P+](c1ccc(C)cc1)(c1ccc(C)cc1)c1ccc(C)cc1)[C@@H]32
GI50 [1]: 756 nM | TGI [1]: 2080 nM | GI50 [2]: 1560 nM | TGI [2]: 3230 nM | GI50 [3]: 369 nM | TGI [3]: 1470 nM | GI50 [4]: 1320 nM | TGI [4]: 2700 nM | GI50 [5]: 227 nM | TGI [5]: 727 nM | GI50 [6]: 1330 nM | TGI [6]: 3050 nM | GI50 [7]: 301 nM | TGI [7]: 1450 nM | GI50 [8]: 180 nM | TGI [8]: 364 nM | GI50 [9]: 427 nM | TGI [9]: 1580 nM | GI50 [10]: 460 nM | TGI [10]: 1780 nM | GI50 [11]: 319 nM | TGI [11]: 1200 nM | GI50 [12]: 271 nM | TGI [12]: 1110 nM | GI50 [13]: 1630 nM | TGI [13]: 3040 nM | GI50 [14]: 178 nM | TGI [14]: 593 nM | GI50 [15]: 311 nM | TGI [15]: 1170 nM | GI50 [16]: 173 nM | TGI [16]: 578 nM | GI50 [17]: 195 nM | TGI [17]: 446 nM | GI50 [18]: 336 nM | TGI [18]: 1180 nM | GI50 [19]: 140 nM | TGI [19]: 1150 nM | GI50 [20]: 309 nM | TGI [20]: 1110 nM | GI50 [21]: 327 nM | TGI [21]: 1140 nM | GI50 [22]: 384 nM | TGI [22]: 1370 nM | GI50 [23]: 189 nM | TGI [23]: 448 nM | GI50 [24]: 229 nM | TGI [24]: 968 nM | GI50 [25]: 234 nM | TGI [25]: 610 nM | GI50 [26]: 290 nM | TGI [26]: 1040 nM | GI50 [27]: 133 nM | TGI [27]: 354 nM | GI50 [28]: 320 nM | TGI [28]: 1460 nM | GI50 [29]: 282 nM | TGI [29]: 1020 nM | GI50 [30]: 264 nM | TGI [30]: 929 nM | GI50 [31]: 8870 nM | TGI [31]: 49600 nM | GI50 [32]: 337 nM | TGI [32]: 1270 nM | GI50 [33]: 352 nM | TGI [33]: 1580 nM | GI50 [34]: 267 nM | TGI [34]: 905 nM | GI50 [35]: 236 nM | TGI [35]: 1080 nM | GI50 [36]: 128 nM | TGI [36]: 1040 nM | GI50 [37]: 256 nM | TGI [37]: 911 nM | GI50 [38]: 335 nM | TGI [38]: 1420 nM | GI50 [39]: 371 nM | TGI [39]: 1310 nM | GI50 [40]: 313 nM | TGI [40]: 1100 nM | GI50 [41]: 383 nM | TGI [41]: 1460 nM | GI50 [42]: 356 nM | TGI [42]: 1040 nM | GI50 [43]: 262 nM | TGI [43]: 794 nM | GI50 [44]: 264 nM | TGI [44]: 949 nM | GI50 [45]: 290 nM | TGI [45]: 1140 nM | GI50 [46]: 217 nM | TGI [46]: 777 nM | GI50 [47]: 294 nM | TGI [47]: 1400 nM | GI50 [48]: 399 nM | TGI [48]: 1580 nM | GI50 [49]: 247 nM | TGI [49]: 907 nM | GI50 [50]: 602 nM | TGI [50]: 1920 nM | GI50 [51]: 258 nM | TGI [51]: 1400 nM | GI50 [52]: 310 nM | TGI [52]: 1120 nM | GI50 [53]: 247 nM | TGI [53]: 822 nM | GI50 [54]: 1450 nM | TGI [54]: 2820 nM

CC(C)c1sc(NC(=O)c2cc(NC(=O)c3cc(NC(=O)c4cscn4)cn3C)cn2C)nc1C(=O)NCCCN(C)C
GI50 [1]: 6160 nM | TGI [1]: 15500 nM | GI50 [2]: > 28300 nM | TGI [2]: > 28300 nM | GI50 [3]: 9720 nM | TGI [3]: > 28300 nM | GI50 [4]: > 28300 nM | TGI [4]: > 28300 nM | GI50 [5]: 994 nM | TGI [5]: 4450 nM | GI50 [6]: 17500 nM | TGI [6]: > 28300 nM | GI50 [7]: 2140 nM | TGI [7]: > 28300 nM | GI50 [8]: 1860 nM | TGI [8]: 5680 nM | GI50 [9]: 5490 nM | TGI [9]: > 28300 nM | GI50 [10]: 5840 nM | TGI [10]: > 28300 nM | GI50 [11]: 3860 nM | TGI [11]: 7920 nM | GI50 [12]: 2290 nM | TGI [12]: 8440 nM | GI50 [13]: > 28300 nM | TGI [13]: > 28300 nM | GI50 [14]: 6120 nM | TGI [14]: 18800 nM | GI50 [15]: 6430 nM | TGI [15]: 19600 nM | GI50 [16]: 846 nM | TGI [16]: 9010 nM | GI50 [55]: 4550 nM | TGI [55]: 26400 nM | GI50 [17]: 5350 nM | TGI [17]: 10900 nM | GI50 [18]: 4480 nM | TGI [18]: 12300 nM | GI50 [19]: 1850 nM | TGI [19]: > 28300 nM | GI50 [20]: 11300 nM | TGI [20]: > 28300 nM | GI50 [21]: 739 nM | TGI [21]: 2210 nM | GI50 [22]: 5250 nM | TGI [22]: 14200 nM | GI50 [23]: 3780 nM | TGI [23]: 8260 nM | GI50 [24]: 3580 nM | TGI [24]: 10400 nM | GI50 [25]: 5630 nM | TGI [25]: 21800 nM | GI50 [26]: 3860 nM | TGI [26]: 19800 nM | GI50 [27]: 1030 nM | TGI [27]: 4680 nM | GI50 [28]: 9350 nM | TGI [28]: > 28300 nM | GI50 [56]: 3220 nM | TGI [56]: > 28300 nM | GI50 [29]: 4510 nM | TGI [29]: 10400 nM | GI50 [57]: 7600 nM | TGI [57]: 22000 nM | GI50 [30]: 1080 nM | TGI [30]: 5580 nM | GI50 [31]: > 28300 nM | TGI [31]: > 28300 nM | GI50 [32]: 2030 nM | TGI [32]: > 28300 nM | GI50 [33]: 5340 nM | TGI [33]: > 28300 nM | GI50 [34]: 6290 nM | TGI [34]: 21000 nM | GI50 [58]: 7860 nM | TGI [58]: 26000 nM | GI50 [35]: 1250 nM | TGI [35]: 24800 nM | GI50 [36]: 28100 nM | TGI [36]: > 28300 nM | GI50 [37]: 1840 nM | TGI [37]: 6990 nM | GI50 [38]: 2630 nM | TGI [38]: > 28300 nM | GI50 [39]: 9830 nM | TGI [39]: > 28300 nM | GI50 [40]: 1080 nM | TGI [40]: 4510 nM | GI50 [59]: 3750 nM | TGI [59]: 7880 nM | GI50 [41]: 3170 nM | TGI [41]: 11900 nM | GI50 [42]: 5350 nM | TGI [42]: 11100 nM | GI50 [43]: 1370 nM | TGI [43]: 16300 nM | GI50 [44]: 5890 nM | TGI [44]: > 28300 nM | GI50 [45]: 838 nM | TGI [45]: > 28300 nM | GI50 [46]: 829 nM | TGI [46]: 11700 nM | GI50 [48]: 4210 nM | TGI [48]: 16300 nM | GI50 [49]: 1070 nM | TGI [49]: 12500 nM | GI50 [50]: > 28300 nM | TGI [50]: > 28300 nM | GI50 [51]: 1140 nM | TGI [51]: > 28300 nM | GI50 [52]: 5780 nM | TGI [52]: 16800 nM | GI50 [53]: 3570 nM | TGI [53]: 7220 nM | GI50 [54]: > 28300 nM | TGI [54]: > 28300 nM
